# Tests used:
# Assay type in all cases: in vivo, human
# Type 2 Diabetic Subjects [1] = test: Bleeding time, Duke's Method, study (c) subset (i); conditions: Table XIV-A, n = 10
# Experimental: Bleeding Time: Bleeding time in seconds was recorded at baseline and at day 10, after 4 hrs post treatment in all the treatment groups by Duke's Method. Normal Range: 60-180 Sec.
# Type 2 Diabetic Subjects [2] = test: Clotting time, Capillary Tube Method, study (c) subset (i); conditions: Table XIV-B, n = 10
# Experimental: Clotting Time: Clotting time in seconds was recorded at baseline and at day 10, after 4 hrs post treatment in all the treatment groups by Capillary Tube Method. Normal Range-300-480 Sec.
# platelet aggregation = test: Inhibition of platelet aggregation using ADP as aggregant, study (c) subset (i); conditions: Clopidogrel 75 mg single dose Day 1, CAPROS 500 mg BD multiple dose Day 10, combination Day 11, n = 10
# Experimental: The platelet aggregation was determined by the following procedure using Wheecon chronologue dual channel platelet aggregometer (Wheecon Instruments Pvt. Ltd., Chemai, Tamilnadu, India). The percentage decrease in platelet aggregation was recorded at baseline and 3 hours post treatment. Approximately 9 ml of blood sample was collected in a 10 ml plastic test tube containing 1 ml of 3.8% Sodium Citrate from the cubital vein of the subject at baseline and after 3 hours post treatment in all the groups. The test was performed immediately within a time period of one and half hours from collection. The samples were centrifuged at 800 rpm for 15 minutes to obtain a platelet-rich plasma. […] The readings were recorded at baseline and after treatment with ADP. The percentage aggregation at baseline and the percentage inhibition of platelet aggregation on post treatment with all the four treatments was calculated. […]
# The effect of CAPROS® 500 mg BD (multiple dose study), Clopidogrel 75 mg (single dose study) and Capros 500 mg+Clopidogrel 75 mg on platelet function was determined by the following procedure using the dual channel platelet aggregometer instrument, as described above. The percentage aggregation at baseline and the percentage inhibition of platelet aggregation on post treatment with all the three treatments was calculated.
# [3] = 4th Hr Post treatment, Clopidogrel 75 mg Day 1, CAPROS 500 mg BD Day 10, combination Day 11
# [4] = Baseline, Clopidogrel 75 mg single dose, CAPROS 500 mg BD multiple dose, combination
structure (smiles),measurement,setting,value
"COC(=O)[C@H](c1ccccc1Cl)N1CCc2sccc2C1 [CLOPIDOGREL, Clopidogrel]","Bleeding Time, Mean",Type 2 Diabetic Subjects [1]; [3],97.30 s
same,"Bleeding Time, Mean",Type 2 Diabetic Subjects [1]; [4],84.40 s
same,"Bleeding Time, Mean",Type 2 Diabetic Subjects [2]; [3],249.5 s
same,"Bleeding Time, Mean",Type 2 Diabetic Subjects [2]; [4],207.5 s
same,"inhibition of platelet aggregation, Mean",platelet aggregation,47.40%

# — patent US8962576B2, “Compositions and method for improving endothelial function and cardiovascular health” (Natreon, Inc., priority 2012, dated 2015)
